Results on 14 compounds are retold here after patent publication US20220324835A1 (Nurix Therapeutics, Inc., priority 2018, published 2022).

Structures are written as SMILES.

Assay [1] concerns the target Cbl-b (residues 36-427) (Homo sapiens, UniProt Q13191). In words: Cbl-b binding assay (SPR, Biacore T200). The settings on record: 20° C., 1:1 binding model. The protocol:
SPR data was collected on a Biacore T200 (GE Healthcare) using a NeutrAvidin (Invitrogen) capture surface that was generated on a polycarboxylate hydrogel sensor chip of medium charge density (XanTec Bioanalytics GmbH) at 20° C. The surface was prepared using 20 mM HEPES, pH 7.5, 100 mM NaCl, 0.5 mM TCEP, 0.01% Triton X-100 as the immobilization buffer. Neutravidin was coupled to the sensor chip through EDC/NHS amine coupling. All steps were performed using a flow rate of 10 μl/min. First, the chip was preconditioned with a 3-min injection of 1 M NaCl, 0.1 M Borate followed by a 10-min equilibration in immobilization buffer. The surface was activated by a 5-min injection of 100 mM EDC/50 mM NHS. Next, 250 μg/mL NeutrAvidin buffered in 10 mM sodium acetate buffer, pH 5.0 was injected over the surface for 2 min. The surface was deactivated with 1 M Tris, pH 8.5 for 7 min then re-equilibrated in immobilization buffer for 7 min. […] Flow cell 1 served as a reference surface and was prepared without protein. All binding measurements were made in 20 mM HEPES, pH 7.5, 100 mM NaCl, 0.5 mM TCEP, 0.01% Triton X-100, 2% DMSO (referred as assay buffer) at 20° C. Compounds, prepared in assay buffer, were diluted from atop concentration of either 100 μM or 50 μM using either a 2- or 3-fold dilution scheme containing 8 or 10 points. Samples were injected for 50 s at 50 μl/min. Dissociation time varied from 90-180 s, depending on anticipated potency. The surface was regenerated by injection of 0.3 M NaCl, prepared in assay buffer for 20 s at 10 μl/min. Positive and negative control samples were run between each compound to monitor surface integrity.
Column marked with an asterisk (*) were tested as described above with assay buffer containing 50 mM NaCl instead of 100 mM NaCl and 30 nM Src kinase instead of 60 nM Src kinase. The resulting data for the Cbl-b binding assay was solvent corrected and double referenced prior to analysis. All data were globally fit to a steady-state affinity and kinetic binding model where applicable). Fit parameters were derived from a 1:1 binding model using the Biacore T200 Evaluation Software V2.0 (GE Healthcare) (Table 2).
For orientation: SPR reads the build-up and loss of mass on a sensor chip optically.

Assay [2] concerns the target T1, Cbl-b (Homo sapiens, UniProt Q13191). In words: Cbl-b activity assay (Cbl-b inhibition assay), TR-FRET of Cbl-b interaction with UbcH5B-Ub. The assay is classed as biochemical. The method in brief:
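TR-FRET readout of Cbl-b binding to Bodipy-fluorescein N-terminally labeled Ub conjugated to UbcH5B C85K, measured with compound present. After compound incubation, 60 nM Src kinase with 1 mM ATP and 5 mM MgCl2 (final) was added for 1.5 h, then a further 1 h incubation; asterisked values used 50 mM NaCl buffer and 30 nM Src.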
In general terms: In TR-FRET formats the signal depends on donor and acceptor labels being close together.

Assay [3] has as its target T1, Cbl-b. In words: Cbl-b inhibition assay (Cbl-b activity assay, FRET, Biological Example 1; 100 mM NaCl, 60 nM Src kinase). The assay is classed as biochemical. To be noted: upper bound stated in text lists; read-out: IC50 values in the Cbl-b inhibition assay of Biological Example 1. The method in brief:
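Steps: Src kinase phosphorylates N-terminal biotinylated Avi-tagged Cbl-b; phosphorylated Cbl-b binds Bodipy-fluorescein ubiquitin-loaded UbcH5B; streptavidin-terbium on Cbl-b sits close to the fluorescein label, producing FRET. Inhibitors block UbcH5B-Ub binding.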

The subject of assay [4] is T-cell. In words: IL-2 secretion from T-cells co-stimulated with anti-CD3 and anti-CD28 antibody (Biological Example 2). It is filed as cell-based, human. The settings on record: Homo sapiens, T-cell, fold change over baseline (anti-CD3/anti-CD28 stimulated T-cells without inhibitor), read-out: IL-2 secretion Anti-CD3/Anti-CD28 stimulation; for fold induction at 0.3 µM: 0.3 μM Cbl-b inhibitor; for fold induction at 1 µM: 1 μM Cbl-b inhibitor. The method in brief:
(§1)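 No assay protocol given; T-cells stimulated with anti-CD3 alone or anti-CD3 plus anti-CD28, with or without Cbl-b inhibitor. Activation read as IL-2 secretion or CD25 surface staining, expressed as fold over baseline from uninhibited cells […].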

For assay [5], the system named is T-cell. Nature of the assay: CD25 cell surface staining on T-cells co-stimulated with anti-CD3 and anti-CD28 antibody (Biological Example 2). The assay is classed as cell-based, human. To be noted: Homo sapiens, T-cell, fold change over baseline (anti-CD3/anti-CD28 stimulated T-cells without inhibitor), read-out: CD25 staining Anti-CD3/Anti-CD28 stimulation; for fold induction at 0.3 µM: 0.3 μM Cbl-b inhibitor; for fold induction at 1 µM: 1 μM Cbl-b inhibitor. The method in brief: as §1

In assay [6] the test system is T-cell. In words: CD25 cell surface staining on T-cells stimulated with anti-CD3 antibody alone (Biological Example 2). The assay is classed as cell-based, human. To be noted: Homo sapiens, T-cell; 1 μM Cbl-b inhibitor; fold change over baseline (anti-CD3/anti-CD28 stimulated T-cells without inhibitor); read-out: CD25 staining Anti-CD3 stimulation.
Assay [7] deals with T-cell. In words: IL-2 secretion from T-cells stimulated with anti-CD3 antibody alone (Biological Example 2). It is filed as cell-based, human. To be noted: Homo sapiens, T-cell; 1 μM Cbl-b inhibitor; fold change over baseline (anti-CD3/anti-CD28 stimulated T-cells without inhibitor); read-out: IL-2 secretion Anti-CD3 stimulation.
[8] abbreviates: assay buffer with 100 mM NaCl, 60 nM Src kinase, read-out: Cbl-b activity IC50.
[9] abbreviates: * assay buffer containing 50 mM NaCl instead of 100 mM NaCl and 30 nM Src kinase instead of 60 nM, read-out: Cbl-b activity IC50 (μM)*.

Chain of Cbl-b (residues 36-427) (Q13191 36-427): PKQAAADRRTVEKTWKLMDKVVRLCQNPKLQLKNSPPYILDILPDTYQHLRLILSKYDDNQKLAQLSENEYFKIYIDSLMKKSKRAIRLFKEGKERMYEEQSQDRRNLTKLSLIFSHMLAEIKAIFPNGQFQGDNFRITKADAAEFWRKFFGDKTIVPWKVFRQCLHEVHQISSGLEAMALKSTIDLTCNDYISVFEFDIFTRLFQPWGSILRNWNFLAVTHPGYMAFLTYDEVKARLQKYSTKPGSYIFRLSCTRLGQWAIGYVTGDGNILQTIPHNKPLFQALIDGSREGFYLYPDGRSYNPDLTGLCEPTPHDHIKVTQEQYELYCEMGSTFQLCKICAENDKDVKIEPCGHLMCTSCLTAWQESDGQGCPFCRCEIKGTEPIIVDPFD
T1 sequence (Q13191 36-427): as above

On to `C[C@@H](c1cccc(N2Cc3c(cccc3C(F)(F)F)C2=O)c1)[C@@H](F)c1nncn1C` (single isomer, unassigned) [Compound 474a], for which the Kd (in general, the constant that tells how readily two partners part at equilibrium) in assay [1] lay in the range of 0.1 to 0.3 µM. Moreover, the IC50 (commonly the concentration that gives 50% inhibition) in assay [2] (setting [8]) was less than 0.1 µM.
The compound `CC(Sc1nncn1C)c1cccc(NC(=O)c2cnc3ccccc3n2)c1` (stereo not shown) [Compound 17, N-(3-(1-((4-Methyl-4H-1,2,4-triazol-3-yl)thio)ethyl)phenyl)quinoxaline-2-carboxamide] registered a dissociation constant Kd in assay [1] of 3 to 10 µM. For the same compound, the IC50 in assay [2] (setting [9]) fell in the range of 3 to 10 µM.
In assay [1], `C[C@H](Sc1nncn1C)c1cccc(NC(=O)c2cccc(C(F)(F)F)c2)c1` [Compound 29, (S)-N-(3-(1-((4-Methyl-4H-1,2,4-triazol-3-yl)thio)ethyl)phenyl)-3-(trifluoromethyl)benzamide] registered a Kd of more than 10 µM. Besides, the IC50 in assay [2] (setting [9]) was 3 to 10 µM.
In turn, `CC(C)c1cccc(C(=O)Nc2cccc([C@H](C)Sc3nncn3C)c2)c1` [Compound 31, (S)-3-Isopropyl-N-(3-(1-((4-methyl-4H-1,2,4-triazol-3-yl)thio)ethyl)phenyl)benzamide] yielded a Kd in assay [1] of more than 10 µM. Also, the half-maximal inhibitory concentration (IC50) in assay [2] (setting [9]) lay within 3 to 10 µM.
The like results for `CC(Sc1nncn1C)c1ccc(F)c(NC(=O)c2ccc3ccccc3n2)c1` (stereo not shown) [Compound 96, N-[2-fluoro-5-[1-[(4-methyl-1,2,4-triazol-3-yl)sulfanyl]ethyl]phenyl]quinoline-2-carboxamide] were, in that order, more than 10 µM and 3 to 10 µM.
The like results for `COCC(Sc1nncn1C)c1cccc(NC(=O)c2cccc(C(F)(F)F)n2)c1` (stereo not shown) [Compound 133, N-[3-[2-methoxy-1-[(4-methyl-1,2,4-triazol-3-yl)sulfanyl]ethyl]phenyl]-6-(trifluoromethyl)pyridine-2-carboxamide] were, in that order, 3 to 10 µM and 3 to 10 µM.
The matching figures for `CCC(Sc1nncn1C)c1cccc(NC(=O)c2ccc3ccccc3n2)c1` (stereo not shown) [Compound 136, N-[3-[1-[(4-methyl-1,2,4-triazol-3-yl)sulfanyl]propyl]phenyl]quinoline-2-carboxamide]: 3 to 10 µM and 3 to 10 µM.
In assay [1], `CCC(Sc1nncn1C)c1cccc(NC(=O)c2cc3ccccc3cn2)c1` (stereo not shown) [Compound 137, N-[3-[1-[(4-methyl-1,2,4-triazol-3-yl)sulfanyl]propyl]phenyl]isoquinoline-3-carboxamide] yielded an equilibrium dissociation constant (Kd) of 3 to 10 µM. For the same compound, in assay [2] (setting [9]), the concentration for half-maximal inhibition (IC50) fell in the range of 3 to 10 µM.
Take `Cn1cnnc1CC1(c2cccc(N3Cc4c(cc(C(O)c5ccccc5)cc4C(F)(F)F)C3=O)c2)COC1` (stereo not shown) [Example 697, 6-(hydroxy(phenyl)methyl)-2-(3-(3-((4-methyl-4H-1,2,4-triazol-3-yl)methyl)oxetan-3-yl)phenyl)-4-(trifluoromethyl)isoindolin-1-one]: the IC50 in assay [3] is not above 0.1 µM; in assay [2] (setting [8]), less than 0.1 µM. For the same compound, the fold induction at 0.3 µM in assay [4] fell in the range of 5 to 7.5; in assay [5] it was 1.31 to 1.5. Also, the fold induction at 1 µM in assay [4] was more than 7.5; in assay [5], 1.31 to 1.5; in assay [6], more than 1; in assay [7] it was more than 0.201.
Consider `Cc1cc(C(=O)Nc2cc(C3CC3)cc(C3(Cc4nncn4C)COC3)c2)nc(C2CC2)n1` [Example 698, 2-cyclopropyl-N-(3-cyclopropyl-5-(3-((4-methyl-4H-1,2,4-triazol-3-yl)methyl)oxetan-3-yl)phenyl)-6-methylpyrimidine-4-carboxamide], for which the IC50 in assay [3] was not above 0.1 µM; in assay [2] (setting [8]) it was less than 0.1 µM. The fold induction at 0.3 µM lay within 2.51 to 5 in assay [4] and 1.01 to 1.3 in assay [5]. Also, the fold induction at 1 µM in assay [4] is more than 7.5; in assay [5], 1.31 to 1.5; in assay [6], more than 1; in assay [7], more than 0.201.
Consider `Cn1cnnc1CC1(c2cccc(NC(=O)c3cc(CN4CC[C@H](F)C4)nc(C(F)(F)F)n3)c2)COC1` [Example 699, (S)-6-((3-fluoropyrrolidin-1-yl)methyl)-N-(3-(3-((4-methyl-4H-1,2,4-triazol-3-yl)methyl)oxetan-3-yl)phenyl)-2-(trifluoromethyl)pyrimidine-4-carboxamide], for which the IC50 in assay [3] was not above 0.1 µM; in assay [2] (setting [8]), less than 0.1 µM. For the same compound, the figures for the fold induction at 0.3 µM in assay [4] and in assay [5] were 1.01 to 2.5 and 1.01 to 1.3, respectively. The fold induction at 1 µM in assay [4] lay within 2.51 to 5; in assay [5], 1.01 to 1.3; in assay [6], 0.801 to 1; in assay [7], 0.051 to 0.1.
Regarding `Cn1cnnc1OC1(c2cccc(N3Cc4c(cc(CN5CCC(F)CC5)cc4C(F)(F)F)C3=O)c2)COC1` [Example 700, 6-((4-fluoropiperidin-1-yl)methyl)-2-(3-(3-((4-methyl-4H-1,2,4-triazol-3-yl)oxy)oxetan-3-yl)phenyl)-4-(trifluoromethyl)isoindolin-1-one], the IC50 in assay [3] was not above 0.3 µM; in assay [2] (setting [8]) it was 0.1 to 0.3 µM. The values for the fold induction at 0.3 µM in assay [4] and in assay [5] were 1.01 to 2.5 and 1.01 to 1.3, respectively. The fold induction at 1 µM in assay [4] was 2.51 to 5; in assay [5], 1.31 to 1.5; in assay [6], 0.601 to 0.8; in assay [7], less than 0.05.
Turning to `COc1cccc2c1CN(Cc1cc3c(c(C(F)(F)F)c1)CN(c1cccc(C4(Cc5nncn5C)COC4)c1)C3=O)C2` [Example 702, 6-((4-methoxyisoindolin-2-yl)methyl)-2-(3-(3-((4-methyl-4H-1,2,4-triazol-3-yl)methyl)oxetan-3-yl)phenyl)-4-(trifluoromethyl)isoindolin-1-one], the results for the IC50 in assay [3] and in assay [2] (setting [8]) were not above 0.1 µM and less than 0.1 µM, respectively. Also, the fold induction at 0.3 µM in assay [4] was in the range of 5 to 7.5; in assay [5] it was 1.51 to 1.75. The fold induction at 1 µM is more than 7.5 in assay [4], 1.51 to 1.75 in assay [5], more than 1 in assay [6] and more than 0.201 in assay [7].
For `Cn1cnnc1CC1(c2cccc(N3Cc4c(cc(CN5CCOC6(CCC6)C5)cc4C(F)(F)F)C3=O)c2)COC1` [Example 703, 6-((5-oxa-8-azaspiro[3.5]nonan-8-yl)methyl)-2-(3-(3-((4-methyl-4H-1,2,4-triazol-3-yl)methyl)oxetan-3-yl)phenyl)-4-(trifluoromethyl)isoindolin-1-one], the values for the IC50 in assay [3] and in assay [2] (setting [8]) were not above 0.1 µM and less than 0.1 µM, respectively. Besides, the fold induction at 0.3 µM was more than 7.5 in assay [4] and 1.01 to 1.3 in assay [5]. For the same compound, the fold induction at 1 µM in assay [4] was more than 7.5; in assay [5] it was 1.01 to 1.3; in assay [6], more than 1; in assay [7], more than 0.201.
